Measurements: the supplement of paper PMC10307832

How the values were obtained:
Assay in all cases: relative viability (nuclei count vs DMSO), 5 days (fraction); higher = more cells survive
[1] = compound: CCn1c(-c2nonc2N)nc2cnc(Oc3cccc(NC(=O)c4ccc(OCCN5CCOCC5)cc4)c3)cc21 + Cc1nc(Nc2ncc(C(=O)Nc3c(C)cccc3Cl)s2)cc(N2CCN(CCO)CC2)n1 [Dasatinib] (partner 0.075 µM)
Outline: (§1)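 Relative viability divides the nuclei count in treated wells by that in vehicle wells. Lung cancer cell lines were seeded in 1536-well plates, dosed by pin tool the next day, and fixed and stained after 5 days in one step with final 0.05% Triton X-100, 1% formaldehyde and 1 ug/ml Hoechst. Dosing was a single drug or a fixed anchor-drug dose plus five library-drug doses (not always all listed) in √10 steps, and values are medians of duplicate plates imaged at 4×.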

[2] = compound: CCC1=CN=CN=C1N2CCN(CC2)CC3=NC4=C(N3)C=C(C=C4)C(F)(F)F + O=C(c1cc(Cc2n[nH]c(=O)c3ccccc23)ccc1F)N1CCN(C(=O)C2CC2)CC1 [Olaparib] (partner 8 µM)
Outline: as §1

[3] = compound: CCn1c(-c2nonc2N)nc2cnc(Oc3cccc(NC(=O)c4ccc(OCCN5CCOCC5)cc4)c3)cc21 + CS(=O)(=O)N1CCN(Cc2cc3nc(-c4cccc5[nH]ncc45)nc(N4CCOCC4)c3s2)CC1 [Pictilisib] (partner 1 µM)
Outline: as §1

[4] = compound: CCn1c(-c2nonc2N)nc2cnc(Oc3cccc(NC(=O)c4ccc(OCCN5CCOCC5)cc4)c3)cc21 + NC(=O)Nc1cc(-c2cccc(F)c2)sc1C(=O)N[C@H]1CCCNC1 [AZD7762] (partner 0.2 µM)
Outline: as §1

Row | Cell Line | relative viability ([1]; first compound 0.04 µM) | relative viability ([1]; first compound 0.1265 µM) | relative viability ([1]; first compound 0.4 µM) | relative viability ([1]; first compound 1.265 µM) | relative viability ([1]; first compound 4 µM) | relative viability ([2]; first compound 0.04 µM) | relative viability ([2]; first compound 0.1265 µM) | relative viability ([2]; first compound 0.4 µM) | relative viability ([2]; first compound 1.265 µM) | relative viability ([2]; first compound 4 µM) | relative viability ([3]; first compound 0.04 µM) | relative viability ([3]; first compound 0.1265 µM) | relative viability ([3]; first compound 0.4 µM) | relative viability ([3]; first compound 1.265 µM) | relative viability ([3]; first compound 4 µM) | relative viability ([4]; first compound 0.04 µM) | relative viability ([4]; first compound 0.1265 µM) | relative viability ([4]; first compound 0.4 µM) | relative viability ([4]; first compound 1.265 µM) | relative viability ([4]; first compound 4 µM)
1 | 201T | 0.644 | 0.682 | 0.443 | 0.588 | 0.506 | 0.816 | 0.831 | 0.866 | 0.814 | 0.853 | 0.732 | 0.67 | 0.586 | 0.631 | 0.743 | 0.632 | 0.603 | 0.462 | 0.608 | 0.535
2 | A549 | – | – | – | – | – | 0.318 | 0.179 | 0.333 | 0.333 | 0.387 | 0.801 | 0.408 | 0.436 | 0.139 | 0.0926 | – | – | – | – | –
3 | A-427 | 0.694 | 0.487 | 0.375 | 0.269 | 0.224 | 0.683 | 0.72 | 0.636 | 0.698 | 0.595 | 0.879 | 0.674 | 0.666 | 0.526 | 0.402 | 0.774 | 0.503 | 0.364 | 0.188 | 0.21
4 | ABC-1 | 0.54 | 0.51 | 0.414 | 0.311 | 0.372 | – | – | 0.646 | 0.649 | 0.536 | 1.34 | 0.599 | 0.494 | 0.442 | 0.401 | 0.96 | 0.663 | 0.445 | 0.402 | 0.625
5 | BEN | 0.276 | 0.238 | 0.174 | 0.186 | 0.232 | 1.01 | 1.08 | 1.03 | 0.629 | 0.598 | 0.574 | 0.501 | 0.43 | 0.285 | 0.318 | 0.683 | 0.532 | 0.388 | 0.385 | 0.468
6 | CAL-12T | 0.39 | 0.43 | 0.267 | 0.276 | 0.157 | 0.75 | 0.726 | 0.721 | 0.661 | 0.667 | 0.486 | 0.549 | 0.525 | – | 0.408 | 0.675 | 0.601 | 0.56 | 0.267 | 0.353
7 | COR-L23 | 0.47 | 0.336 | 0.173 | 0.164 | 0.121 | 0.351 | 0.316 | 0.332 | 0.344 | 0.356 | 1.02 | 0.68 | 0.238 | 0.197 | 0.192 | – | – | – | – | –
8 | COR-L 105 | 0.261 | 0.219 | 0.217 | 0.232 | 0.167 | 0.654 | 0.711 | 0.623 | 0.648 | 0.762 | 0.361 | 0.368 | 0.277 | 0.17 | 0.249 | – | – | – | – | –
9 | Calu-6 | – | – | – | – | – | 0.681 | 0.591 | 0.523 | 0.556 | 0.483 | 1.06 | 0.808 | 0.797 | 0.54 | 0.403 | – | – | – | – | –
10 | ChaGo-K-1 | 0.592 | 0.442 | 0.365 | 0.394 | 0.395 | 0.392 | 0.39 | 0.457 | 0.431 | 0.381 | 1.13 | 0.652 | 0.507 | – | 0.425 | 0.978 | 0.867 | 0.738 | 0.596 | 0.581
